# In patent publication US20100267561A1, “HERBICIDAL PYRIDAZINONE DERIVATIVES” (priority 2007, published 2010):
# Read-outs that look alike come from different tables or passages of the source.
# Tests used:
# Assay in all cases: Test B pre-/postemergence plant response
# Type in all cases: in vivo
# [1] = system: common (oilseed) sunflower (Helianthus annuus); conditions: Helianthus annuus, pre-emergence, Preemergence, read-out: Plant response rating, Sunflower
# Outline: (§1)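 Preemergence and postemergence (plants 2-18 cm, 1- to 4-leaf stage) applications used test chemicals in a non-phytotoxic solvent with surfactant. Plants were held in a greenhouse 13 to 15 days, then rated visually against controls on a 0-100 scale (0 no effect, 100 complete control).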
# [2] = system: lambsquarters (Chenopodium album); conditions: Chenopodium album, read-out: Plant response rating, Lambsquarters; for pest or weed control at 31 g/ha: 31 g ai/ha, 100 complete control; for pest or weed control at 62 g/ha: 62 g ai/ha; for pest or weed control at 62 g/ha / pest or weed control at 125 g/ha / pest or weed control at 250 g/ha: scale 0 to 100; for pest or weed control at 125 g/ha: 125 g ai/ha; for pest or weed control at 250 g/ha: 250 g ai/ha
# Outline: as §1
# corn (Zea mays) = conditions: Zea mays; for Corn plant response rating (crop injury, 0 = no effect, 100 = complete kill) at 31 g/ha: 31 g ai/ha, 100 complete control; for Corn plant response rating (crop injury, 0 = no effect, 100 = complete kill) at 62 g/ha: 62 g ai/ha; for Corn plant response rating (crop injury, 0 = no effect, 100 = complete kill) at 62 g/ha / Corn plant response rating (crop injury, 0 = no effect, 100 = complete kill) at 125 g/ha / Corn plant response rating (crop injury, 0 = no effect, 100 = complete kill) at 250 g/ha: scale 0 to 100; for Corn plant response rating (crop injury, 0 = no effect, 100 = complete kill) at 125 g/ha: 125 g ai/ha; for Corn plant response rating (crop injury, 0 = no effect, 100 = complete kill) at 250 g/ha: 250 g ai/ha
# Outline: as §1
# [3] = system: bermudagrass (Cynodon dactylon); conditions: for pest or weed control at 31 g/ha: 31 g ai/ha, 100 complete control; for pest or weed control at 62 g/ha: 62 g ai/ha; for pest or weed control at 125 g/ha: 125 g ai/ha
# Outline: as §1
# [4] = system: blackgrass (Alopecurus myosuroides); conditions: for pest or weed control at 31 g/ha: 31 g ai/ha, 100 complete control; for pest or weed control at 62 g/ha: 62 g ai/ha; for pest or weed control at 125 g/ha: 125 g ai/ha
# Outline: as §1
# [5] = system: wheat (Triticum aestivum); conditions: Triticum aestivum, read-out: Plant response rating, Wheat; for plant injury at 31 g/ha: 31 g ai/ha, 100 complete control; for plant injury at 62 g/ha: 62 g ai/ha; for plant injury at 62 g/ha / plant injury at 125 g/ha / plant injury at 250 g/ha: scale 0 to 100; for plant injury at 125 g/ha: 125 g ai/ha; for plant injury at 250 g/ha: 250 g ai/ha
# Outline: as §1
# [6] = system: green foxtail (Setaria viridis); conditions: Setaria viridis, read-out: Plant response rating, Foxtail, Green; for pest or weed control at 31 g/ha: 31 g ai/ha, 100 complete control; for pest or weed control at 62 g/ha: 62 g ai/ha; for pest or weed control at 125 g/ha: 125 g ai/ha
# Outline: as §1
# [7] = post-emergence, Postemergence, scale 0 to 100, 0 no effect
# [8] = pre-emergence, Preemergence, 0 to 100 scale, 0 no effect
# [9] = 250 g ai/ha, preemergence, 0-100 scale
# [10] = Cynodon dactylon, post-emergence, Postemergence, scale 0 to 100, read-out: Plant response rating, Bermudagrass
# [11] = Cynodon dactylon, pre-emergence, Preemergence, scale 0 to 100, read-out: Plant response rating, Bermudagrass
# [12] = Alopecurus myosuroides, post-emergence, Postemergence, scale 0 to 100, read-out: Plant response rating, Blackgrass
# [13] = Alopecurus myosuroides, pre-emergence, Preemergence, scale 0 to 100, read-out: Plant response rating, Blackgrass
# [14] = post-emergence, Postemergence, scale 0 to 100
# [15] = pre-emergence, Preemergence, scale 0 to 100
smiles,measurement,setting,value
"Cc1cc(-c2ccc(C(F)(F)F)cc2)nn1-c1c(O)cnn(C)c1=O [Compound 1, 5-hydroxy-2-methyl-4-[5-methyl-3-[4-(trifluoromethyl)phenyl]-1H-pyrazol-1-yl]-3(2H)-pyridazinone]",pest or weed control at 31 g/ha,"[1]; 31 g ai/ha, 0 to 100 scale, 0 no effect, 100 complete control",0%
same,pest or weed control at 62 g/ha,"[1]; 62 g ai/ha, scale 0 to 100",0%
same,pest or weed control at 125 g/ha,"[1]; 125 g ai/ha, scale 0 to 100",0%
same,pest or weed control at 250 g/ha,"[1]; 250 g ai/ha, scale 0 to 100",60%
same,pest or weed control at 31 g/ha,[2]; [7],0%
same,pest or weed control at 62 g/ha,"[2]; post-emergence, Postemergence",0%
same,pest or weed control at 125 g/ha,"[2]; post-emergence, Postemergence",40%
same,pest or weed control at 250 g/ha,"[2]; post-emergence, Postemergence",50%
same,pest or weed control at 31 g/ha,[2]; [8],0%
same,pest or weed control at 62 g/ha,"[2]; pre-emergence, Preemergence",0%
same,pest or weed control at 125 g/ha,"[2]; pre-emergence, Preemergence",0%
same,pest or weed control at 250 g/ha,"[2]; pre-emergence, Preemergence",0%
same,"Corn plant response rating (crop injury, 0 = no effect, 100 = complete kill) at 31 g/ha",corn (Zea mays); [7],10%
same,"Corn plant response rating (crop injury, 0 = no effect, 100 = complete kill) at 62 g/ha","corn (Zea mays); post-emergence, Postemergence",100%
same,"Corn plant response rating (crop injury, 0 = no effect, 100 = complete kill) at 125 g/ha","corn (Zea mays); post-emergence, Postemergence",100%
same,"Corn plant response rating (crop injury, 0 = no effect, 100 = complete kill) at 250 g/ha","corn (Zea mays); post-emergence, Postemergence",100%
same,"Corn plant response rating (crop injury, 0 = no effect, 100 = complete kill) at 31 g/ha",corn (Zea mays); [8],90%
same,"Corn plant response rating (crop injury, 0 = no effect, 100 = complete kill) at 62 g/ha","corn (Zea mays); pre-emergence, Preemergence",95%
same,"Corn plant response rating (crop injury, 0 = no effect, 100 = complete kill) at 125 g/ha","corn (Zea mays); pre-emergence, Preemergence",100%
same,"Corn plant response rating (crop injury, 0 = no effect, 100 = complete kill) at 250 g/ha","corn (Zea mays); pre-emergence, Preemergence",100%
same,Bermudagrass plant response rating,[3]; [9],100
same,pest or weed control at 31 g/ha,"[3]; Cynodon dactylon, post-emergence, Postemergence, scale 0 to 100, 0 no effect, read-out: Plant response rating, Bermudagrass",100%
same,pest or weed control at 62 g/ha,[3]; [10],100%
same,pest or weed control at 125 g/ha,[3]; [10],100%
same,pest or weed control at 250 g/ha,"[3]; Cynodon dactylon, post-emergence, Postemergence, 250 g ai/ha, scale 0 to 100, read-out: Plant response rating, Bermudagrass",100%
same,pest or weed control at 31 g/ha,"[3]; Cynodon dactylon, pre-emergence, Preemergence, 0 to 100 scale, 0 no effect, read-out: Plant response rating, Bermudagrass",100%
same,pest or weed control at 62 g/ha,[3]; [11],100%
same,pest or weed control at 125 g/ha,[3]; [11],100%
same,Blackgrass plant response rating,[4]; [9],100
same,pest or weed control at 31 g/ha,"[4]; Alopecurus myosuroides, post-emergence, Postemergence, scale 0 to 100, 0 no effect, read-out: Plant response rating, Blackgrass",20%
same,pest or weed control at 62 g/ha,[4]; [12],90%
same,pest or weed control at 125 g/ha,[4]; [12],100%
same,pest or weed control at 250 g/ha,"[4]; Alopecurus myosuroides, post-emergence, Postemergence, 250 g ai/ha, scale 0 to 100, read-out: Plant response rating, Blackgrass",100%
same,pest or weed control at 31 g/ha,"[4]; Alopecurus myosuroides, pre-emergence, Preemergence, 0 to 100 scale, 0 no effect, read-out: Plant response rating, Blackgrass",100%
same,pest or weed control at 62 g/ha,[4]; [13],100%
same,pest or weed control at 125 g/ha,[4]; [13],100%
same,plant injury at 31 g/ha,[5]; [7],45%
same,plant injury at 62 g/ha,"[5]; post-emergence, Postemergence",90%
same,plant injury at 125 g/ha,"[5]; post-emergence, Postemergence",90%
same,plant injury at 250 g/ha,"[5]; post-emergence, Postemergence",95%
same,plant injury at 31 g/ha,[5]; [8],35%
same,plant injury at 62 g/ha,"[5]; pre-emergence, Preemergence",45%
same,plant injury at 125 g/ha,"[5]; pre-emergence, Preemergence",90%
same,plant injury at 250 g/ha,"[5]; pre-emergence, Preemergence",95%
same,pest or weed control at 31 g/ha,[6]; [7],95%
same,pest or weed control at 62 g/ha,[6]; [14],100%
same,pest or weed control at 125 g/ha,[6]; [14],100%
same,pest or weed control at 250 g/ha,"[6]; post-emergence, Postemergence, 250 g ai/ha, scale 0 to 100",100%
same,pest or weed control at 31 g/ha,[6]; [8],100%
same,pest or weed control at 62 g/ha,[6]; [15],100%
same,pest or weed control at 125 g/ha,[6]; [15],100%
